Data as given in paper PMC2845915 (Bioconjugate chemistry, 2010).

How the values were obtained:
human A2AAR = human A2AAR (Homo sapiens, UniProt P29274); conditions: read-out: Affinity (Ki) A2 (A2A), [3H]CGS21680, HEK293, ref Tosh et al. ([15], [21]) and Melman et al. ([14]); cited from earlier work
human A1AR = target: T1, human A1AR (Homo sapiens, UniProt P30542); conditions: at 10 μM, ref Tosh et al. ([15], [21]) and Melman et al. ([14]); cited from earlier work
T1 sequence (P30542 1-326): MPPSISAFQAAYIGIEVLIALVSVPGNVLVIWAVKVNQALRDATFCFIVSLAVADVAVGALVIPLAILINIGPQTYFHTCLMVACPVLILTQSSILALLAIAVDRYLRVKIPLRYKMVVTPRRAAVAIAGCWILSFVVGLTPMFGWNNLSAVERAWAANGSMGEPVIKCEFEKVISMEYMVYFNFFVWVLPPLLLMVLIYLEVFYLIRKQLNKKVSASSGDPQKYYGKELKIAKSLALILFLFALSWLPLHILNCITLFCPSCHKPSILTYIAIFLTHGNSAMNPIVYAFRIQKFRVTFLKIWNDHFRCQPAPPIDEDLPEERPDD

human A3AR [1] = target: T2, human A3AR (Homo sapiens, UniProt P0DMS8); conditions: cited from earlier work
T2 sequence (P0DMS8 1-318): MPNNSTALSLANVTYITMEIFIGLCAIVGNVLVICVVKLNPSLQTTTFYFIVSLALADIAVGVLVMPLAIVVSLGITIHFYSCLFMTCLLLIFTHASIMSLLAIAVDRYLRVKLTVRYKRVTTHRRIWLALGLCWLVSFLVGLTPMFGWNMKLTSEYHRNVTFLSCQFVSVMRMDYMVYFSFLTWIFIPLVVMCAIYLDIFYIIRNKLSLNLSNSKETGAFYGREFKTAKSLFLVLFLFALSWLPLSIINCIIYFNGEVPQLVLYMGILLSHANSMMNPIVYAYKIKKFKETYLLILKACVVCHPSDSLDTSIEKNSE

human A3AR [2] = target: T2, human A3AR; experiment: Radioligand binding at human A3AR; conditions: human ARs
human P2Y14 receptor = target: T3, human P2Y14 receptor (Homo sapiens, UniProt Q15391); conditions: read-out: Potency at the P2Y14 receptor in the same assay; C6 cells expressing the human P2Y14 receptor; cited from earlier work
T3 sequence (Q15391 1-338): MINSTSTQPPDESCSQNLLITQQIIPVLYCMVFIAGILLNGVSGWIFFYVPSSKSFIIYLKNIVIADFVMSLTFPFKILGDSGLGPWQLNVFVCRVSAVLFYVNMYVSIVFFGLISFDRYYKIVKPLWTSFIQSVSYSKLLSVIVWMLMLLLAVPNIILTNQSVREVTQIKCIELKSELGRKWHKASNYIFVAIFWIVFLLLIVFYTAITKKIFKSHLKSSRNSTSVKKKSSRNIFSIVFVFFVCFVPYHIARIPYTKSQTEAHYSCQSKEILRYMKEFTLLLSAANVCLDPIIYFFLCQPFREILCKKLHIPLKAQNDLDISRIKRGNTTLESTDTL

Sequence of human A2AAR (P29274 whole entry): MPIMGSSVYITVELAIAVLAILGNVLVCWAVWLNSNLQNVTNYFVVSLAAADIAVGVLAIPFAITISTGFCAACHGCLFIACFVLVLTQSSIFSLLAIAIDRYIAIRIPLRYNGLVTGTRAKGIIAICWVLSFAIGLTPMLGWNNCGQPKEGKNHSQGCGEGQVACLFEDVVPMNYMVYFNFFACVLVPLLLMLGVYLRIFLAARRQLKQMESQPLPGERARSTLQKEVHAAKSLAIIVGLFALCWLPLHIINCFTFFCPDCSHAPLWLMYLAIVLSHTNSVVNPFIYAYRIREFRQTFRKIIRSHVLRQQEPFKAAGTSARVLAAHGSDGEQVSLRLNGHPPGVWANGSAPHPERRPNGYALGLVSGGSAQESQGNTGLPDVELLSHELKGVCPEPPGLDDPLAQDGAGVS

Compound | Ki (human A2AAR) [nM] | % inhibition of radioligand binding A1 (human A1AR) | Selectivity for the A3AR (human A3AR [1]) | Selectivity for the A3AR in comparison to the A1AR (human A3AR [2]) [fold] | EC50 (human P2Y14 receptor) [nM]
CNC(=O)[C@@]12C[C@@H]1[C@@H](n1cnc3c(NCc4cccc(Cl)c4)nc(Cl)nc31)[C@H](O)[C@@H]2O [Compound 2] | 2300 ± 100 | – | – | – | –
C#CCCCCC#Cc1nc(NCc2cccc(Cl)c2)c2ncn([C@H]3[C@H](O)[C@H](O)[C@]4(C(=O)NC)C[C@H]34)c2n1 [Compound 3a] | – | (31±2%) at 10 μM | – | – | –
CNC(=O)[C@@]12C[C@@H]1[C@@H](n1cnc3c(NCc4cccc(Cl)c4)nc(C#CCCCCc4cn(CCNC(C)=O)nn4)nc31)[C@H](O)[C@@H]2O [Compound 4a] | 2440 ± 320 | (12±4%) at 10 μM | at least 100 fold | > 500 | –
O=C(O)[C@H]1O[C@H](OP(=O)(O)OP(=O)(O)OC[C@H]2O[C@@H](n3ccc(=O)[nH]c3=O)[C@H](O)[C@@H]2O)[C@H](O)[C@@H](O)[C@@H]1O [UDPGA, uridine-5′-diphosphoglucuronic acid] | – | – | – | – | 200 to 300
